Consider ten molecules from US20080207527A1, “Bicyclic Compounds Which Inhibit Beta-Secretase Activity and Methods of Use Thereof” (CoMentis, Inc., priority 2004, published 2008).

Broadly, the Ki is the equilibrium dissociation constant of an inhibitor or competing ligand from its target.

Chain of memapsin 2 (P56817 46-501): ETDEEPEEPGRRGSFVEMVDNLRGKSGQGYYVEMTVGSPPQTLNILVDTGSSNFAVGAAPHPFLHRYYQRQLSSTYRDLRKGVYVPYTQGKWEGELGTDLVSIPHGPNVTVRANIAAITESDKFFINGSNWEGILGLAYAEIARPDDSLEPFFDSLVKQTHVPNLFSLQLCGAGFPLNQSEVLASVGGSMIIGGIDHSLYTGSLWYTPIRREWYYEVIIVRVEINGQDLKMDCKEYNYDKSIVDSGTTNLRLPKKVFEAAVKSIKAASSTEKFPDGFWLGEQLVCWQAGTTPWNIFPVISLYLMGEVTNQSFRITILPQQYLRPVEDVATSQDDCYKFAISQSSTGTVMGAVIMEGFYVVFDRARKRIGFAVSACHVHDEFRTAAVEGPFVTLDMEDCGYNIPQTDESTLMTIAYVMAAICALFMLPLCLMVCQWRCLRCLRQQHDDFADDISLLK

The target of this assay is memapsin 2 (Homo sapiens, UniProt P56817). The assay is described as follows: Inhibition of memapsin 2 beta-secretase activity toward fluorogenic substrate FS-2. The format is biochemical. Conditions: pH 4, 37° C., 20 minutes pre-incubation, read-out: M2 Ki. As for the experimental part:
Potency of compounds were determined by measurement of their inhibition of memapsin 2 activity toward a fluorescent substrate. […] Briefly, assays were performed at pH 4, 37° C., by pre-incubation of memapsin 2 enzyme with compound for 20 minutes. Activity measure was initiated by addition of a fluorogenic substrate FS-2 (Bachem Americas, Torrance, Calif.). Fluorescent signal increase over time was measured as a rate of hydrolysis of the peptide substrate.
In the case of `CCCN(CCC)C(=O)c1cccc(C(=O)NC(CC(C)C)C(O)CC(C)C(=O)NCC(C)C)c1` (stereo not shown) [N1-(5-hydroxy-8-(isobutylamino)-2,7-dimethyl-8-oxooctan-4-yl)-N3,N3-dipropylisophthalamide], the Ki fell in the range of 2000 to 5000 nM.

Turning to `Cc1nc(CN(C)C(=O)c2cccc(C(=O)NC(CC(C)C)C(O)CC(C)C(=O)NC(C(=O)NCC(C)C)C(C)C)c2)cs1` (stereo not shown) [N1-(5-hydroxy-8-(1-(isobutylamino)-3-methyl-1-oxobutan-2-ylamino)-2,7-dimethyl-8-oxooctan-4-yl)-N3-methyl-N3-((2-methylthiazol-4-yl)methyl)isophthalamide], the Ki was < 405 nM.

Turning to `CCCN(CCC)C(=O)c1cncc(C(=O)NC(CC(C)C)C(O)CC(C)C(=O)NC(C(=O)NC(C)C)C(C)C)c1` (stereo not shown) [N3-(5-hydroxy-8-(1-(isopropylamino)-3-methyl-1-oxobutan-2-ylamino)-2,7-dimethyl-8-oxooctan-4-yl)-N5,N5-dipropylpyridine-3,5-dicarboxamide], the Ki was < 405 nM.

Take `CCc1csc(CNC(=O)c2cc(C(=O)NC(CC(C)C)C(O)CC(C)C(=O)NC(C(=O)NCC(C)C)C(C)C)cc(N(C)S(C)(=O)=O)c2)n1` (stereo not shown) [N1-((4-ethylthiazol-2-yl)methyl)-N3-(5-hydroxy-8-(1-(isobutylamino)-3-methyl-1-oxobutan-2-ylamino)-2,7-dimethyl-8-oxooctan-4-yl)-5-(N-methylmethylsulfonamido)isophthalamide]: the Ki is < 405 nM.

For the molecule `CC(C)CC(NC(=O)c1cc(C(=O)NC(C)c2ccccc2)cc(N(C)S(C)(=O)=O)c1)C(O)CC(NC(=O)OCc1ccccc1)C(=O)NC(C(=O)NC(C)C)C(C)C` (stereo not shown) [benzyl 4-hydroxy-1-(1-(isopropylamino)-3-methyl-1-oxobutan-2-ylamino)-7-methyl-5-(3-(N-methylmethylsulfonamido)-5-(1-phenylethylcarbamoyl)benzamido)-1-oxooctan-2-ylcarbamate], the Ki lay in the range of 405 to 2000 nM.

In the case of `CC(C)CNC(=O)C(NC(=O)C(C)CC(O)C(CC(C)C)NC(=O)c1cc(OCC2CNC(=O)O2)cc(C(=O)NC(C)c2ccccc2)c1)C(C)C` (stereo not shown) [N1-(5-hydroxy-8-(1-(isobutylamino)-3-methyl-1-oxobutan-2-ylamino)-2,7-dimethyl-8-oxooctan-4-yl)-5-((2-oxooxazolidin-5-yl)methoxy)-N3-(1-phenylethyl)isophthalamide], the Ki was < 405 nM.

Regarding `CC(C)CNC(=O)C(NC(=O)C(C)CC(O)C(CC(C)C)NC(=O)c1cc(OCC(O)CN=[N+]=[N-])cc(C(=O)NC(C)c2ccccc2)c1)C(C)C` (stereo not shown) [5-(3-azido-2-hydroxypropoxy)-N1-(5-hydroxy-8-(1-(isobutylamino)-3-methyl-1-oxobutan-2-ylamino)-2,7-dimethyl-8-oxooctan-4-yl)-N3-(1-phenylethyl)isophthalamide], the Ki lay within 405 to 2000 nM.

For `CCCN(CCC)C(=O)c1cc(NC(=O)OC(C)(C)C)cc(C(=O)NC(CC(C)C)C(O)CC(OC)C(=O)NC(C(=O)NC(C)C)C(C)C)c1` (stereo not shown) [tert-butyl 3-(dipropylcarbamoyl)-5-(5-hydroxy-8-(1-(isopropylamino)-3-methyl-1-oxobutan-2-ylamino)-7-methoxy-2-methyl-8-oxooctan-4-ylcarbamoyl)phenylcarbamate], the Ki is > 5000 nM.

As to `CCN(Cc1ccncc1)C(=O)c1cncc(C(=O)NC(CC(C)C)C(O)CC(C)C(=O)NC(C(=O)NCC(C)C)C(C)C)c1` (stereo not shown) [N3-ethyl-N5-(5-hydroxy-8-(1-(isobutylamino)-3-methyl-1-oxobutan-2-ylamino)-2,7-dimethyl-8-oxooctan-4-yl)-N3-(pyridin-4-ylmethyl)pyridine-3,5-dicarboxamide], the Ki is > 5000 nM.

On to `Cc1csc(CN(C(=O)c2cccc(C(=O)NC(CC(C)C)C(O)CC(C)C(=O)NC(C(=O)NCC(C)C)C(C)C)c2)C(C)C)n1` (stereo not shown) [N1-(5-hydroxy-8-(1-(isobutylamino)-3-methyl-1-oxobutan-2-ylamino)-2,7-dimethyl-8-oxooctan-4-yl)-N3-isopropyl-N3-((4-methylthiazol-2-yl)methyl)isophthalamide], for which the Ki was < 405 nM.
